Test results published in patent US8741592B2, “Methods of screening an agent for an activity in an isolated eye of a teleost” (Phylonix Pharmaceuticals, Inc., priority 2007, dated 2014).
Where “and” joins values, the source holds several entries; their conditions need not be identical. Identical values can stand only once. Entries after “also recorded” stand apart in the source; their conditions may differ.

What was measured:
CoCl2 induced CNV [1] = experiment: Eye specific angiogenesis ELISA (eZ-CNV ELISA) on isolated eyes; type: in vivo, zebrafish; conditions: co-treatment with 0.1 mg/ml CoCl2 for 4 days, 4 eyes/well
Protocol: Calculation of Drug Effects. To reduce the variability contributed by substrate and to compare results from different assays performed on different days, drug effects were normalized to % inhibition on EC proliferation. Chemiluminescent signal (CU) in each well (containing 4 eyes) was measured and used to calculate drug effect. […] In addition, to estimate non-specific background signal, 24 C were processed without antibody incubation; the mean value of which was subtracted from each CU measurement. Mean CU of D was used as 100% control. Drug effect was calculated following formula (a). %Inhibition=(1−(CU(drug treated)/CU(control)))×100% (a)
Based on the visual assessment above, co-treatment chosen as the treatment method to investigate the effects of the anti-angiogenic drugs Celebrex and Genistein in CoCl2 induced CNV in zebrafish using the eZ-CNV™ ELISA. Drug effects were calculated using the method described in Materials and Methods, infra. […] Based on the dose response curve, the optimal concentration for Celebrex was 20 μM and for Genistein was 0.0001 μM.
Methods for Dissociating Eyes from Whole Zebrafish. Zebrafish were processed for whole mount immunochemical staining with either Alexa 488 or HRP conjugated Phy-V following standard procedures. After extensive washing, stained zebrafish were incubated with 150 U/ml collagenase at 37° C. for 45 minutes; eyes were then dissociated from the whole zebrafish by gentle pipetting.
Eye Specific Angiogenesis ELISA (eZ-CNV™ ELISA). Isolated eyes of whole mount Phy-V-HRP stained zebrafish were placed in 96-well microplates, 4 eyes/well; 150 μl/well PS-atto (Lumigen, Southfield, Mich.), chemiluminescence HRP substrate, was added and the chemiluminescence signal from the enzymatic product was detected by Synergy HT microplate reader (BioTeK Instruments, Inc., Winooski, Vt.).

zebrafish eye (retina) = type: in vivo
CoCl2 induced CNV [2] = experiment: Effect of anti-angiogenic drugs on CoCl2 induced CNV, visual assessment of Phy-V stained whole zebrafish; type: in vivo; conditions: for Mean ± SE (% CNV) / % CNV (per experiment) / CNV zebrafish (number per experiment): co-treatment with 0.1 mg/ml CoCl2, 24 hpf to 5 dpf; for abnormal neovascularization in the choroidal vessel plexus: co-treatment with CoCl2, 5 dpf zebrafish
Protocol: 24 hpf zebrafish were treated with 0.1 mg/ml CoCl2 continuously for 4 days, and various concentrations of Celebrex or Genistein were incubated with the zebrafish. At the 5 dpf stage, zebrafish were fixed and stained with zebrafish angiogenic-vessel-specific antibody, Phy-V. Several treatment strategies were assessed: (1) pre-treatment (high concentration of drug added for 4 hours and withdrawn before CoCl2 induction); (2) co-treatment (drugs were co-treated with CoCl2); and (3) post-treatment (drugs were added 24 hours after CoCl2).
The drug effects on CNV zebrafish were assessed visually using microscopic examination of Phy-V stained whole zebrafish. % CNV inhibition was calculated by dividing the total number of CNV zebrafish by the total number of zebrafish per experiment (Tables II and III). The percentage of CNV zebrafish was lowest after co-treatment with Celebrex.
Celebrex or Genistein Co-Treatment. Celebrex and Genistein dissolved in DMSO were added directly to fish water, the final concentration of DMSO for Celebrex and Genistein was 0.8%. For pre-treatment, 24 hpf zebrafish were incubated with high concentrations of each drug at 28° C. for 4 hours; the drugs were washed off and zebrafish were treated with 0.1 mg/ml CoCl2. For co-treatment, each drug was added simultaneously with 0.1 mg/ml CoCl2. For post-treatment, each drug was added 24 hours after CoCl2 addition. After drug treatment, zebrafish were washed and processed for whole mount immunochemical staining
Whole Mount Immunofluorescence Staining. Zebrafish were fixed by Dent's fixative (DMSO/methanol=⅓) and processed for whole mount immunochemical staining following standard procedures (Westerfield, 1993, supra). Alexa 488 conjugated Phy-V antibody (Phylonix), which specifically labels activated endothelial cells, was used to stain zebrafish, and followed by examination by fluorescence microscopy.

PGK = test system: PGK; set-up: key: ↑: Up arrows indicate up-regulation; ↓: down arrows indicate down-regulation; —: horizontal line indicates no change; conditions: zebrafish, in vivo
zebrafish = conditions: in vivo
PEDF = test system: PEDF; set-up: key: ↑: Up arrows indicate up-regulation; ↓: down arrows indicate down-regulation; —: horizontal line indicates no change; conditions: zebrafish, in vivo
[3] = test system: choroidal neovascularization (CNV) in zebrafish; experiment: Hypoxia-induced choroidal neovascularization (CNV) model, Phy-V staining of treated zebrafish; type: in vivo
VEGF = test system: VEGF; set-up: key to VEGF expression (RT-PCR): ↑: Up arrows indicate up-regulation; ↓: down arrows indicate down-regulation; —: horizontal line indicates no change; conditions: zebrafish, in vivo
HIF-1α = test system: HIF-1α; set-up: key: ↑: Up arrows indicate up-regulation; ↓: down arrows indicate down-regulation; —: horizontal line indicates no change; conditions: zebrafish, in vivo
IGF = test system: IGF; set-up: key: ↑: Up arrows indicate up-regulation; ↓: down arrows indicate down-regulation; —: horizontal line indicates no change; conditions: zebrafish, in vivo
[4] = CoCl2 + 20 μM Celebrex-treated 5 dpf zebrafish

SMILES: Cc1ccc(-c2cc(C(F)(F)F)nn2-c2ccc(S(N)(=O)=O)cc2)cc1 [Celebrex]
- dose response in eZ-CNV ELISA (CoCl2 induced CNV [1]): typical dose response curve
- optimal concentration based on the dose response curve (CoCl2 induced CNV [1]): 20 µM
- effect on eye development (zebrafish eye (retina); [4]): did not delay eye development
- retinal structure (zebrafish eye (retina); [4]): normal 5 layer structure with no vessels present in the retina
- Mean ± SE (% CNV) (CoCl2 induced CNV [2]; Celebrex 10 μM): 37.0 ± 16.1%
- Mean ± SE (% CNV) (CoCl2 induced CNV [2]; Celebrex 15 μM): 22.1 ± 12.4%
- % CNV (per experiment) (CoCl2 induced CNV [2]; Celebrex 20 μM): 0% and 10.0%
- Mean ± SE (% CNV) (CoCl2 induced CNV [2]; Celebrex 20 μM): 3.3 ± 3.3%
- abnormal neovascularization in the choroidal vessel plexus (CoCl2 induced CNV [2]): prevented abnormal neovascularization
- inhibition of CoCl2 induced CNV after post-treatment (CoCl2 induced CNV [2]; post-treatment, drug added 24 hours after CoCl2): limited inhibition
- CNV after pre-treatment (CoCl2 induced CNV [2]; pre-treatment, high concentration of drug 4 hours, withdrawn before CoCl2 induction): low percentage of CNV zebrafish, however, the CNV defects were severe

SMILES: [Cl-].[Cl-].[Co+2] [CoCl2]
- PGK expression (RT-PCR) (PGK): —
- lethality (zebrafish): instantaneous death
- zebrafish dying (zebrafish): 100%
- PEDF expression (RT-PCR) (PEDF): —
- retinal structure / vessels in the retina (zebrafish eye (retina); zebrafish, in vivo): abnormal vessels formed in the retina; also recorded: abnormal retinal structure
- frequency or severity of CNV ([3]; zebrafish, in vivo): did not increase the frequency or severity of CNV
- number of treated zebrafish exhibiting CNV specific phenotype ([3]; zebrafish, in vivo): 64
- treated zebrafish exhibiting CNV specific phenotype ([3]; zebrafish, in vivo): 63.6±11.1%
- vessel growth ([3]; zebrafish, in vivo): did not stimulate vessel growth
- VEGF expression (RT-PCR) (VEGF): — and ↑
- VEGF expression (RT-PCR), in words (VEGF): Up-regulation
- HIF-1α expression (RT-PCR) (HIF-1α): ↑ and ↓ and —
- IGF expression (RT-PCR) (IGF): —

SMILES: O=c1c(-c2ccc(O)cc2)coc2cc(O)cc(O)c12 [Genistein]
- dose response in eZ-CNV ELISA (CoCl2 induced CNV [1]): only showed preventative effects at a low concentration
- optimal concentration based on the dose response curve (CoCl2 induced CNV [1]): 0.0001 µM
- Mean ± SE (% CNV) (CoCl2 induced CNV [2]; Genistein 0.0001 μM): 20.8%
- % CNV (per experiment) (CoCl2 induced CNV [2]; Genistein 0.001 μM): 36.8% and 39.1%
- CNV zebrafish (number per experiment) (CoCl2 induced CNV [2]; Genistein 0.001 μM): 7 and 9
- Mean ± SE (% CNV) (CoCl2 induced CNV [2]; Genistein 0.001 μM): 38.0%
- % CNV (per experiment) (CoCl2 induced CNV [2]; Genistein 0.01 μM): 23.5%
- CNV zebrafish (number per experiment) (CoCl2 induced CNV [2]; Genistein 0.01 μM): 4
- Mean ± SE (% CNV) (CoCl2 induced CNV [2]; Genistein 0.01 μM): 23.5%
- abnormal neovascularization in the choroidal vessel plexus (CoCl2 induced CNV [2]): prevented abnormal neovascularization

SMILES: CC(C)(S)[C@@H](N)C(=O)O [Penicillamine]
- CNV ([3]; 0.01 μM Penicillamine from 24 hpf, at 5 dpf): CNV was observed
- angiogenesis ([3]; 0.01 μM Penicillamine treatment at the 24 hpf stage): stimulated angiogenesis throughout the zebrafish
- zebrafish developing CNV compared with CoCl2 treatment ([3]; Penicillamine treatment): Fewer zebrafish developed CNV
